# Measurements: patent publication US8541210B2, “Producing eicosapentaenoic acid (EPA) from biodiesel-derived crude glycerol” (Virginia Tech Intellectual Properties, Inc., priority 2008, dated 2013)
# Assays:
# [1] = tested on: Pythium irregulare (ATCC 10951); test: Growth and EPA production of P. irregulare with glucose, pure glycerol or crude glycerol as carbon source; assay type: cell-based; conditions: FIG. 1A; substrate around 20 g/L
# [2] = tested on: P. irregulare; test: Effects of methanol on fungal growth; assay type: cell-based, Pythium irregulare; conditions: 20 g/L pure glycerol spiked with 2, 4, and 8 g/L methanol; filter-sterilised; spores inoculated
# Description: The crude glycerol used in this work contained ˜12% (w/w) methanol. […] To study the “true” effects of methanol on fungal growth and EPA production, we prepared a medium containing 20 g/L pure glycerol spiked with 2, 4, and 8 g/L methanol. The medium was then passed through a 0.2 μm filter before fungal spores were inoculated. […] The result clearly indicated the negative effects of methanol on growth and EPA production of P. irregulare.
Structure (SMILES),cell growth [1],growth in methanol-containing medium [2]
"OCC(O)CO [Pure glycerol, glycerol]",supported cell growth,
CO [methanol],,did not observe any growth
